{"source": "patent EP2886105B1", "about": "“Controlled-release formulations” (CAMURUS AB, priority 2007, dated 2018)", "key": {"[1]": {"assay": "In vivo release of SOM after subcutaneous injection, plasma SOM by ELISA", "parameters": "species or system rat", "procedure": "A liquid lipid formulation comprising SPC/GDO/EtOH = 44/44/12 wt% was prepared as described in Example 1.\nA freeze-dried powder of SOM (MW ca 1.6 kDa) and TRE was prepared in the same way as in Example 4 giving a SOM (free base)-to-TRE weight ratio of 1:2.5.\nThe freeze-dried powder was added to the lipid formulation such that the final SOM (free base) concentration in the formulation was 2 wt% (ca 20 mg/mL) followed by end-over-end rotation for 1 day. […] The final filter-sterilized formulation was then injected subcutaneously to rats (male Sprague-Dawley).\nIn the in vivo rat model the release of SOM was followed during 14 days. The formulations were administered subcutaneously between the scapulae by using a syringe (23G, 0.6mm × 25mm). The SOM concentration in the rat plasma was quantified using a commercial ELISA kit (S-1164, Bachem/Peninsula Laboratories, LOQ = 0.03 ng/mL). The dose was 20 mg/kg and dose volume was 1 mL/kg corresponding to a drug load of 2.0wt% SOM (free base)."}, "[2]": {"details": "natural Somatostatin; cited from earlier work"}, "[3]": {"details": "cited from earlier work"}}, "note": "Where a name gives a salt, the structure may show the parent alone.", "data": [{"smiles": "C[C@H](N)C(=O)NCC(=O)N[C@H]1CSSC[C@@H](C(=O)O)NC(=O)[C@H](CO)NC(=O)[C@H]([C@@H](C)O)NC(=O)[C@H](Cc2ccccc2)NC(=O)[C@H]([C@@H](C)O)NC(=O)[C@H](CCCCN)NC(=O)[C@H](Cc2c[nH]c3ccccc23)NC(=O)[C@H](Cc2ccccc2)NC(=O)[C@H](Cc2ccccc2)NC(=O)[C@H](CC(N)=O)NC(=O)[C@H](CCCCN)NC1=O", "note": "[SOM, Somatostatin, acetate salt]", "values": [{"measurement": "Release profile", "setting": "[1]; rat plasma, subcutaneous, 20 mg/kg SOM lipid formulation, low initial release", "value": "without a burst effect"}, {"measurement": "SOM levels higher than the endogenous SOM levels (factor)", "setting": "[1]; rat plasma, versus placebo formulation, depending on time point, over at least 14 days, s.c. 20 mg/kg", "value": "2-9"}, {"measurement": "Duration of release", "setting": "[1]; rat, subcutaneous, 20 mg/kg SOM lipid formulation", "value": "at least 14 days"}, {"measurement": "biological half-life", "setting": "[2]", "value": "1-3 minutes"}, {"measurement": "half-life of SOM in rat plasma", "setting": "[3]", "value": "a few minutes"}]}]}
